In PubChem BioAssay AID330 (DTP/NCI, 2004):
Where “and” joins values, the source holds several entries; their conditions need not be identical. Equal values may be shown once. Inconclusive results and toxic doses are left out. How the source made its calls: active means survival T/C of 150% or more; inactive means T/C below 125% in these data.

Test system: P388 leukemia ip, CD2F1 mice, survival T/C
Experiment: NCI In Vivo Anticancer Drug Screen. Data for tumor model P388 Leukemia (intraperitoneal) in CD2F1 (CDF1) mice
Settings: endpoint: median survival time, higher = longer survival
Method in brief: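 Mice carrying the transplanted tumor received test compound or vehicle. Survival was recorded in each group, and the value is the treated-group measurement divided by that of the vehicle-treated control group.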

[1] = dose: 50.0 mg/kg/injection, schedule: Q01DX009 (ip), vehicle: Klucel (hydroxypropylcellulose) (HPC)
[2] = dose: 50.0 mg/kg/injection, schedule: Q01DX005 (ip), vehicle: saline with Tween-80
[3] = dose: 100.0 mg/kg/injection, schedule: Q01DX001 (ip), vehicle: Klucel (hydroxypropylcellulose) (HPC)
[4] = dose: 200.0 mg/kg/injection, schedule: Q01DX001 (ip), vehicle: Klucel (hydroxypropylcellulose) (HPC)
[5] = dose: 60.0 mg/kg/injection, schedule: Q01DX005 (ip), vehicle: saline with Tween-80
[6] = dose: 120.0 mg/kg/injection, schedule: Q01DX005 (ip), vehicle: saline with Tween-80
[7] = dose: 50.0 mg/kg/injection, schedule: Q01DX005 (ip), vehicle: Klucel (hydroxypropylcellulose) (HPC)
[8] = dose: 100.0 mg/kg/injection, schedule: Q01DX005 (ip), vehicle: Klucel (hydroxypropylcellulose) (HPC)

Measured: T/C

COc1ccc(NC(=O)c2sc(SC)nc2N)cc1
inactive: [1] 100 % of control | dose: 100.0 mg/kg/injection, schedule: Q01DX009 (ip), vehicle: Klucel (hydroxypropylcellulose) (HPC) 98 % of control | dose: 200.0 mg/kg/injection, schedule: Q01DX009 (ip), vehicle: Klucel (hydroxypropylcellulose) (HPC) 97 % of control

CCCCCCCCCCCCNNC(=O)[C@@H]1[C@H](c2cc(OC)c(OC)c(OC)c2)c2cc3c(cc2[C@H](O)[C@H]1CO)OCO3
inactive: [2] 117 % of control and 124 % of control | dose: 100.0 mg/kg/injection, schedule: Q01DX005 (ip), vehicle: saline with Tween-80 122 % of control

Cc1nn(C(=O)c2cccnc2)c(-c2ccccc2)c1N=Nc1ccc(S(=O)(=O)N=C(N)N)cc1
inactive: dose: 3.12 mg/kg/injection, schedule: Q01DX005 (ip), vehicle: saline with Tween-80 98 % of control | dose: 6.25 mg/kg/injection, schedule: Q01DX005 (ip), vehicle: saline with Tween-80 95 % of control | dose: 12.5 mg/kg/injection, schedule: Q01DX005 (ip), vehicle: saline with Tween-80 105 % of control and 86 % of control | [2] 89 % of control

COc1cccc(C(=O)c2ccncc2C)c1OC
inactive: dose: 12.5 mg/kg/injection, schedule: Q01DX009 (ip), vehicle: water 103 % of control | dose: 25.0 mg/kg/injection, schedule: Q01DX009 (ip), vehicle: water 102 % of control | dose: 50.0 mg/kg/injection, schedule: Q01DX009 (ip), vehicle: water 100 % of control | dose: 100.0 mg/kg/injection, schedule: Q01DX009 (ip), vehicle: water 97 % of control | dose: 200.0 mg/kg/injection, schedule: Q01DX009 (ip), vehicle: water 102 % of control

O=S(=O)(N=N/C=C1\C=CC=CN1O)c1cccs1
inactive: dose: 50.0 mg/kg/injection, schedule: Q04DX002 (ip), vehicle: saline with Tween-80 100 % of control | dose: 600.0 mg/kg/injection, schedule: Q04DX002 (ip), vehicle: saline with Tween-80 117 % of control

O=[N+]([O-])c1ccc(/C=C(/c2ccc([N+](=O)[O-])o2)S(=O)(=O)C(Cl)(Cl)Cl)cc1
inactive: dose: 25.0 mg/kg/injection, schedule: Q01DX009 (ip), vehicle: saline 100 % of control | dose: 50.0 mg/kg/injection, schedule: Q01DX009 (ip), vehicle: saline 89 % of control | dose: 100.0 mg/kg/injection, schedule: Q01DX009 (ip), vehicle: saline 91 % of control | dose: 100.0 mg/kg/injection, schedule: Q01DX009 (ip), vehicle: suspension in saline 86 % of control

C[P+]1(C)CCCCC1
inactive: dose: 100.0 mg/kg/injection, schedule: Q01DX001 (ip), vehicle: saline 98 % of control | dose: 200.0 mg/kg/injection, schedule: Q01DX001 (ip), vehicle: saline 91 % of control

Cc1c2oc3c(C)c(N)cc(C(=O)NC4C(=O)NC(C(C)C)C(=O)N5CCCC5C(=O)N(C)CC(=O)N(C)C(C(C)C)C(=O)OC4C)c3nc-2c(C(=O)NC2C(=O)NC(C(C)C)C(=O)N3CCCC3C(=O)N(C)CC(=O)N(C)C(C(C)C)C(=O)OC2C)c(N)c1=O (stereo not drawn)
active: dose: 0.3 mg/kg/injection, schedule: Q01DX009 (ip), vehicle: Klucel (hydroxypropylcellulose) (HPC) 190 % of control
inactive: dose: 0.01 mg/kg/injection, schedule: Q01DX009 (ip), vehicle: Klucel (hydroxypropylcellulose) (HPC) 102 % of control | dose: 0.02 mg/kg/injection, schedule: Q01DX009 (ip), vehicle: Klucel (hydroxypropylcellulose) (HPC) 110 % of control | dose: 0.04 mg/kg/injection, schedule: Q01DX009 (ip), vehicle: Klucel (hydroxypropylcellulose) (HPC) 115 % of control | dose: 0.08 mg/kg/injection, schedule: Q01DX009 (ip), vehicle: Klucel (hydroxypropylcellulose) (HPC) 93 % of control

Oc1cc(-c2cc3cccc[n+]3o2)cc(O)c1O
inactive: dose: 12.5 mg/kg/injection, schedule: Q01DX009 (ip), vehicle: Klucel (hydroxypropylcellulose) (HPC) 100 % of control | dose: 25.0 mg/kg/injection, schedule: Q01DX009 (ip), vehicle: Klucel (hydroxypropylcellulose) (HPC) 99 % of control | [1] 100 % of control

Cc1ccc(S(=O)(=O)N/N=C/c2c(Cl)n(-c3ccccc3)c3ccccc23)cc1
inactive: dose: 100.0 mg/kg/injection, schedule: Q01DX001 (ip), vehicle: saline with Tween-80 100 % of control | dose: 200.0 mg/kg/injection, schedule: Q01DX001 (ip), vehicle: saline with Tween-80 99 % of control | dose: 400.0 mg/kg/injection, schedule: Q01DX001 (ip), vehicle: saline with Tween-80 97 % of control

CC(=O)OCc1c(Cl)nc2sccn12
inactive: [3] 104 % of control and 108 % of control | [4] 109 % of control and 117 % of control

Cc1ccc(C(=O)CSC2=NCCN2)cc1Cl
inactive: [5] 106 % of control | [6] 100 % of control | dose: 240.0 mg/kg/injection, schedule: Q01DX005 (ip), vehicle: saline with Tween-80 97 % of control

O=C1CSC(c2ccco2)N1c1nncs1 (stereo not drawn)
inactive: dose: 30.0 mg/kg/injection, schedule: Q01DX005 (ip), vehicle: Klucel (hydroxypropylcellulose) (HPC) 100 % of control | dose: 60.0 mg/kg/injection, schedule: Q01DX005 (ip), vehicle: Klucel (hydroxypropylcellulose) (HPC) 100 % of control | dose: 120.0 mg/kg/injection, schedule: Q01DX005 (ip), vehicle: Klucel (hydroxypropylcellulose) (HPC) 103 % of control | dose: 240.0 mg/kg/injection, schedule: Q01DX005 (ip), vehicle: Klucel (hydroxypropylcellulose) (HPC) 108 % of control

CC(C)(c1ccc(OCC2CO2)cc1)c1ccc(OCC2CO2)cc1 (stereo not drawn)
inactive: dose: 25.0 mg/kg/injection, schedule: Q01DX009 (ip), vehicle: saline with Tween-80 103 % of control | dose: 50.0 mg/kg/injection, schedule: Q01DX009 (ip), vehicle: saline with Tween-80 103 % of control and 107 % of control | dose: 100.0 mg/kg/injection, schedule: Q01DX009 (ip), vehicle: saline with Tween-80 103 % of control | dose: 200.0 mg/kg/injection, schedule: Q01DX009 (ip), vehicle: saline with Tween-80 109 % of control | dose: 400.0 mg/kg/injection, schedule: Q01DX009 (ip), vehicle: saline with Tween-80 114 % of control

O=C(O)Cc1cn2ccccc2n1
inactive: [3] 96 % of control | [4] 100 % of control | dose: 400.0 mg/kg/injection, schedule: Q01DX001 (ip), vehicle: Klucel (hydroxypropylcellulose) (HPC) 93 % of control

Clc1ccc(Cc2nc3ccccc3s2)cc1
inactive: [5] 106 % of control | [6] 121 % of control

COC1=C(C)C2CC(OC)OC3CC4CCCCC4(C)C(C1=O)C32C (stereo not drawn)
inactive: dose: 25.0 mg/kg/injection, schedule: Q01DX005 (ip), vehicle: Klucel (hydroxypropylcellulose) (HPC) 105 % of control | [7] 99 % of control | [8] 92 % of control

Cn1c2nc(-[n+]3ccc(Cc4ccccc4)cc3)nc-2c([O-])n(C)c1=O
inactive: dose: 100.0 mg/kg/injection, schedule: Q04DX002 (ip), vehicle: saline 100 % of control | dose: 200.0 mg/kg/injection, schedule: Q04DX002 (ip), vehicle: saline 99 % of control | dose: 400.0 mg/kg/injection, schedule: Q04DX002 (ip), vehicle: saline 95 % of control

C=CCN(CC=C)CCN1CCN(CCCN2c3ccccc3Sc3ccc(C(F)(F)F)cc32)CC1
inactive: dose: 12.5 mg/kg/injection, schedule: Q04DX003 (ip), vehicle: saline 101 % of control and 103 % of control | dose: 25.0 mg/kg/injection, schedule: Q04DX003 (ip), vehicle: saline 111 % of control and 112 % of control | dose: 50.0 mg/kg/injection, schedule: Q04DX003 (ip), vehicle: saline 104 % of control and 107 % of control | dose: 100.0 mg/kg/injection, schedule: Q04DX003 (ip), vehicle: saline 100 % of control and 102 % of control

CC1(C)CC(N=[N+]=[N-])CC(C)(C)N1O
inactive: dose: 100.0 mg/kg/injection, schedule: Q04DX003 (ip), vehicle: Klucel (hydroxypropylcellulose) (HPC) 100 % of control

O=C(/C=C\c1ccncc1)c1ccc([N+](=O)[O-])cc1
inactive: dose: 25.0 mg/kg/injection, schedule: Q01DX009 (ip), vehicle: other 103 % of control | dose: 50.0 mg/kg/injection, schedule: Q01DX009 (ip), vehicle: other 101 % of control | dose: 100.0 mg/kg/injection, schedule: Q01DX009 (ip), vehicle: other 96 % of control | dose: 200.0 mg/kg/injection, schedule: Q01DX009 (ip), vehicle: other 93 % of control | dose: 400.0 mg/kg/injection, schedule: Q01DX009 (ip), vehicle: other 92 % of control

O=C(NC(Cc1ccccc1)C(=O)O)C(Cl)Cl (stereo not drawn)
inactive: [7] 91 % of control | [8] 100 % of control | dose: 200.0 mg/kg/injection, schedule: Q01DX005 (ip), vehicle: Klucel (hydroxypropylcellulose) (HPC) 100 % of control

O=C(NC(Cc1ccc(Br)cc1)C(=O)O)c1cccc(Cl)c1 (stereo not drawn)
inactive: dose: 50.0 mg/kg/injection, schedule: Q01DX005 (ip), vehicle: saline 100 % of control | dose: 100.0 mg/kg/injection, schedule: Q01DX005 (ip), vehicle: saline 101 % of control
